{"source": "paper PMC9540496", "about": "(Clinical Pharmacology and Therapeutics, 2022)", "key": {"[1]": {"test": "Static perpetrator DDI risk assessment", "settings": "for Theoretical gut concentration (Igut): 200 mg/250 mL"}, "[2]": {"test": "Safety across the three phase I pharmacokinetic studies", "assay_type": "in vivo, human"}, "P‐gp": {"tested_on": "P‐gp", "test": "Anticipated effect of abrocitinib on digoxin, not formally evaluated", "settings": "assuming complete P‐gp inhibition"}, "[3]": {"test": "Phase I crossover DDI study: rosuvastatin", "assay_type": "in vivo, human"}, "[4]": {"settings": "cited from earlier work"}, "[5]": {"test": "Endogenous biomarkers NMN", "assay_type": "in vivo, human", "settings": "for Tmax: median (range)"}, "clinical": {"test": "clinical", "settings": "both, human, plasma, oral, 500 mg"}, "[6]": {"test": "Phase I crossover DDI study: metformin", "settings": "metformin 500 mg alone; median (range)"}, "[7]": {"test": "Phase I crossover DDI study: dabigatran etexilate", "assay_type": "in vivo, human"}, "[8]": {"settings": "rosuvastatin 10 mg ± abrocitinib 200 mg QD"}, "[9]": {"settings": "both, human, plasma, oral, 75 mg"}, "[10]": {"settings": "dabigatran etexilate 75 mg + abrocitinib 200 mg vs alone"}, "[11]": {"settings": "dabigatran etexilate 75 mg ± abrocitinib 200 mg single dose"}}, "note": "Marks after values point to notes of the source that are not given here.", "data": [{"smiles": "CCCS(=O)(=O)N[C@H]1C[C@@H](N(C)c2ncnc3[nH]ccc23)C1", "note": "[abrocitinib, Abrocitinib]", "values": [{"measurement": "absorption rate constant (ka)", "setting": "[1]", "result": 0.067, "unit": "min⁻¹"}, {"measurement": "fraction absorbed (fafg)", "setting": "[1]", "result": 0.91}, {"measurement": "Theoretical gut concentration (Igut)", "setting": "[1]", "result": 0.8, "unit": "mg/mL"}, {"measurement": "Theoretical gut concentration (Igut)", "setting": "[1]; MW 323.4", "result": 2.47, "unit": "mM"}, {"measurement": "0.1 × molar dose/250 mL", "setting": "[1]; cutoff for intestinal transporters, 200 mg dose", "result": 247, "unit": "µM"}, {"measurement": "50 × Cmax,u", "setting": "[1]; cutoff for systemic transporters, unbound steady-state Cmax", "result": 65, "unit": "µM"}, {"measurement": "Theoretical liver inlet concentration (Iin,max,u)", "setting": "[1]; fu × (Cmax + ((fafg × ka × Dose/Qh)/B/P))", "result": 9.1, "unit": "µM"}, {"measurement": "serious or severe adverse events", "setting": "[2]; all three pharmacokinetic studies, abrocitinib 200 mg with probe drugs", "result": "No serious or severe adverse events"}, {"measurement": "tolerability", "setting": "[2]; co‐administered with a single oral dose of dabigatran etexilate, rosuvastatin, or metformin, healthy volunteers", "result": "well‐tolerated"}, {"measurement": "anticipated maximum increase in digoxin AUC", "setting": "P‐gp", "result": "≤ 30", "unit": "%"}]}, {"smiles": "CC(C)c1nc(N(C)S(C)(=O)=O)nc(-c2ccc(F)cc2)c1/C=C/[C@@H](O)C[C@@H](O)CC(=O)O", "note": "[Rosuvastatin, rosuvastatin]", "values": [{"measurement": "plasma exposure and CLr on co‐administration with abrocitinib", "setting": "[3]; 90% CIs within acceptance range of 80–125%", "result": "unaffected"}, {"measurement": "AUC(0-inf)", "setting": "[3]; both, human, plasma, oral, 10 mg", "result": 57.6, "unit": "ng·h/mL"}, {"measurement": "CL renal", "setting": "[3]; both, human, urine and plasma, oral, 10 mg", "result": 243, "unit": "mL/min"}, {"measurement": "Cmax", "setting": "[3]; rosuvastatin 10 mg alone, geometric mean (geometric %CV)", "result": "5.38 (53) ng/mL"}, {"measurement": "AUCinf ratio of abrocitinib + substrate vs. substrate alone AGm (90% CI)", "setting": "[3]; [8]", "result": "1.02 (0.93–1.12) ^c"}, {"measurement": "CLr ratio of abrocitinib + substrate vs. substrate alone AGm (90% CI)", "setting": "[3]; [8]", "result": "0.91 (0.83–1.01) ^c"}, {"measurement": "Cmax ratio of abrocitinib + substrate vs. substrate alone AGm (90% CI)", "setting": "[3]; [8]", "result": "0.99 (0.86–1.14) ^c"}, {"measurement": "increase of rosuvastatin AUC with ABCG2 421A/A vs. wild‐type", "setting": "[4]; ABCG2 (BCRP) polymorphism", "result": "~ 2 fold"}, {"measurement": "parent drug recovered in urine", "setting": "[4]; after oral dosing", "result": 10, "unit": "%"}]}, {"smiles": "C[C@H]1O[C@@H](O[C@H]2[C@@H](O)C[C@H](O[C@H]3[C@@H](O)C[C@H](O[C@H]4CC[C@@]5(C)[C@H](CC[C@@H]6[C@@H]5C[C@@H](O)[C@]5(C)[C@@H](C7=CC(=O)OC7)CC[C@]65O)C4)O[C@@H]3C)O[C@@H]2C)C[C@H](O)[C@@H]1O", "note": "[digoxin]", "values": [{"measurement": "absolute bioavailability", "setting": "[4]", "result": "75–78%"}]}, {"smiles": "C=C[C@H]1C[N@@]2CC[C@H]1C[C@@H]2[C@@H](O)c1ccnc2ccc(OC)cc12", "note": "[quinidine]", "values": [{"measurement": "increase of dabigatran exposures", "setting": "[4]; P‐gp interaction, dabigatran labeling", "result": "50–60%"}]}, {"smiles": "CC(C)C(=O)O[C@H](CC(=O)[O-])C[N+](C)(C)C", "note": "[IBC, isobutyryl‐L‐carnitine]", "values": [{"measurement": "AUC24 ratio of abrocitinib + metformin vs. metformin alone AGm (90% CI)", "setting": "[5]; IBC", "result": "0.95 (0.85–1.05) ^c"}, {"measurement": "Cmax ratio of abrocitinib + metformin vs. metformin alone AGm (90% CI)", "setting": "[5]; IBC", "result": "0.95 (0.85–1.06) ^c"}, {"measurement": "AUC24", "setting": "[5]; IBC in plasma, metformin 500 mg alone, geometric mean (geometric %CV), N = 12", "result": "1187 (56) ng•hour/mL"}, {"measurement": "Cmax", "setting": "[5]; IBC, abrocitinib 200 mg + metformin 500 mg, geometric mean (geometric %CV)", "result": "56.6 (55) ng/mL"}, {"measurement": "Tmax", "setting": "[5]; IBC, abrocitinib 200 mg + metformin 500 mg", "result": "14.0 (0.00–23.8) hour"}, {"measurement": "effect of abrocitinib co‐administration with metformin on AUC24 or Cmax", "setting": "[5]; IBC, compared with metformin alone", "result": "did not alter"}, {"measurement": "Cmax", "setting": "[5]; IBC, metformin 500 mg alone, geometric mean (geometric %CV)", "result": "59.7 (56) ng/mL"}, {"measurement": "Tmax", "setting": "[5]; IBC, metformin 500 mg alone", "result": "16.0 (0.00–23.8) hour"}]}, {"smiles": "CN(C)C(=N)N=C(N)N", "note": "[Metformin, metformin]", "values": [{"measurement": "AUC(0-inf)", "setting": "clinical", "result": 5200, "unit": "ng·h/mL"}, {"measurement": "Cmax", "setting": "clinical", "result": 721, "unit": "ng/mL"}, {"measurement": "Tmax", "setting": "[6]", "result": "4.00 (1.00–4.00) hour"}]}, {"smiles": "CCCN(CCC)S(=O)(=O)c1ccc(C(=O)O)cc1", "note": "[probenecid]", "values": [{"measurement": "decrease in CLr of rosuvastatin or furosemide in the presence of probenecid", "setting": "[4]; OAT3 index inhibitor, approximate five‐fold", "result": "~80", "unit": "%"}]}, {"smiles": "[H]/N=C(/N)c1ccc(NCc2nc3cc(C(=O)N(CCC(=O)O)c4ccccn4)ccc3n2C)cc1", "note": "[Dabigatran, dabigatran]", "values": [{"measurement": "increase of plasma exposure on co‐administration with abrocitinib", "setting": "[7]; abstract statement", "result": "~ 50%"}, {"measurement": "Cmax", "setting": "[7]; [9]", "result": 30.2, "unit": "ng/mL"}, {"measurement": "half-life", "setting": "[7]; [9]", "result": "8.93 ± 2.28", "unit": "h"}, {"measurement": "increase of AUCinf on co‐administration with abrocitinib", "setting": "[7]; [10]", "result": 53, "unit": "%"}, {"measurement": "increase of Cmax on co‐administration with abrocitinib", "setting": "[7]; [10]", "result": 40, "unit": "%"}, {"measurement": "AUCinf ratio of abrocitinib + substrate vs. substrate alone AGm (90% CI)", "setting": "[7]; [11]", "result": "1.53 (1.09–2.15)"}, {"measurement": "Cmax ratio of abrocitinib + substrate vs. substrate alone AGm (90% CI)", "setting": "[7]; [11]", "result": "1.40 (0.92–2.13)"}]}]}
